Test results reported in patent publication US20140045873A1, “NOVEL MICROBIOCIDES” (SYNGENTA PARTICIPATIONS AG, priority 2010, published 2014).
Where two headings read alike, the source gives them in different places.

How the values were obtained:
[1] = system: Puccinia recondita f. sp. tritici; conditions: in Triticum aestivum, foliar, read-out: control of Puccinia recondita f. sp. tritici (percent disease control compared to untreated)
[2] = system: Puccinia recondita f. sp. tritici; conditions: in Triticum aestivum, foliar, read-out: control of Puccinia recondita f. sp. tritici (percent disease control compared to untreated); remark: listed apart in the source
Pyrenophora teres = conditions: in Hordeum vulgare, foliar, read-out: control of Pyrenophora teres (disease control compared to untreated)
[3] = system: Monographella nivalis (Microdochium nivale); test: Monographella nivalis (Microdochium nivale) / liquid culture (foot rot cereals); type: cell-based; conditions: PDB, 24° C., 4-5 days after application, read-out: control of Monographella nivalis (inhibition of growth, photometric)
[4] = system: Botryotinia fuckeliana (Botrytis cinerea); test: Botryotinia fuckeliana (Botrytis cinerea) / liquid culture (gray mould); type: cell-based; conditions: Vogels broth, 24° C., 3-4 days after application, read-out: control of Botryotinia fuckeliana (inhibition of growth, photometric)
Description: Botryotinia Fuckeliana (Botrytis cinerea)/Liquid Culture (Gray Mould): Conidia of the fungus from cryogenic storage were directly mixed into nutrient broth (Vogels broth). […].45

[5] = system: Glomerella lagenarium (Colletotrichum lagenarium); test: Glomerella lagenarium (Colletotrichum lagenarium) / liquid culture (anthracnose); type: cell-based; conditions: Colletotrichum orbiculare, read-out: control of Glomerella lagenarium (inhibition of growth, photometric)
[6] = system: Thanatephorus cucumeris (Rhizoctonia solani); conditions: read-out: control of Thanatephorus cucumeris (inhibition of growth, photometric)
[7] = system: Mycosphaerella arachidis (Cercospora arachidicola); test: Mycosphaerella arachidis (Cercospora arachidicola) / liquid culture (early leaf spot); type: cell-based; conditions: read-out: control of Mycosphaerella arachidis (inhibition of growth, photometric)
[8] = system: Phaeosphaeria nodorum (Septoria nodorum); conditions: Parastagonospora nodorum, in Triticum aestivum, foliar, read-out: control of Phaeosphaeria nodorum (percent disease control compared to untreated)
Gaeumannomyces graminis = Gaeumannomyces graminis / liquid culture (take-all of cereals); type: cell-based; conditions: read-out: control of Gaeumannomyces graminis (inhibition of growth, photometric)
[9] = system: Mycosphaerella graminicola (Septoria tritici); test: Mycosphaerella graminicola (Septoria tritici) / liquid culture (Septoria blotch); type: cell-based; conditions: Zymoseptoria tritici, read-out: control of Mycosphaerella graminicola (inhibition of growth, photometric)
[10] = 200 ppm, liquid culture, PDB, 24° C., 3-4 days after application
[11] = 200 ppm, liquid culture, PDB, 24° C., 4-5 days after application

C/C(=N\OCCCc1cccc(-c2ccccn2)n1)c1cccc(C)n1 [P.01]
≥ 80%: pest or weed control at 200 ppm [1] | pest or weed control at 200 ppm [2] | pest or weed control at 200 ppm (Pyrenophora teres) | inhibition at 200 ppm [3] | inhibition at 200 ppm [4] | inhibition at 200 ppm [5, 10] | inhibition at 200 ppm [6] | inhibition at 200 ppm [7, 11] | pest or weed control at 200 ppm [8]

C/C(=N\OCCCc1cccc(-c2nccc(C)n2)n1)c1cccc(C)n1 [P.02]
≥ 80%: pest or weed control at 200 ppm [1] | inhibition at 200 ppm (Gaeumannomyces graminis) | pest or weed control at 200 ppm [2] | pest or weed control at 200 ppm (Pyrenophora teres) | inhibition at 200 ppm [9] | inhibition at 200 ppm [5] | inhibition at 200 ppm [6] | inhibition at 200 ppm [7] | pest or weed control at 200 ppm [8]

C/C(=N\OCCCc1cccc(-c2ccnc(C)n2)n1)c1cccc(C)n1 [P.03]
≥ 80%: inhibition at 200 ppm (Gaeumannomyces graminis; [11]) | pest or weed control at 200 ppm [2] | pest or weed control at 200 ppm (Pyrenophora teres) | inhibition at 200 ppm [4] | inhibition at 200 ppm [9, 11] | inhibition at 200 ppm [6] | inhibition at 200 ppm [7, 11] | pest or weed control at 200 ppm [8]

C/C(=N\OCCCc1cccc(-c2ncccn2)n1)c1cccc(C)n1 [P.04]
≥ 80%: pest or weed control at 200 ppm [1] | pest or weed control at 200 ppm [2] | inhibition at 200 ppm [4] | inhibition at 200 ppm [6] | inhibition at 200 ppm [7, 11] | pest or weed control at 200 ppm [8]

C/C(=N\OCCCc1cccc(-c2ccncn2)n1)c1cccc(C)n1 [P.06]
≥ 80%: inhibition at 200 ppm (Gaeumannomyces graminis; [11]) | inhibition at 200 ppm [9, 11]

C/C(=N\OCCCc1cccc(-c2ccnc(C3CC3)n2)n1)c1cccc(C)n1 [P.07]
≥ 80%: inhibition at 200 ppm (Gaeumannomyces graminis; [11]) | pest or weed control at 200 ppm (Pyrenophora teres) | inhibition at 200 ppm [3] | inhibition at 200 ppm [4] | inhibition at 200 ppm [9, 11] | inhibition at 200 ppm [5, 10] | inhibition at 200 ppm [6] | inhibition at 200 ppm [7, 11] | pest or weed control at 200 ppm [8]

C/C(=N\OCCCc1cccc(-c2ccnc(-c3ccccc3)n2)n1)c1cccc(C)n1 [P.08]
≥ 80%: inhibition at 200 ppm (Gaeumannomyces graminis; [11]) | inhibition at 200 ppm [4] | inhibition at 200 ppm [9, 11] | inhibition at 200 ppm [7, 11]

CSc1nccc(-c2cccc(CCCO/N=C(\C)c3cccc(C)n3)n2)n1 [P.09]
≥ 80%: inhibition at 200 ppm (Gaeumannomyces graminis; [11]) | pest or weed control at 200 ppm [2] | pest or weed control at 200 ppm (Pyrenophora teres) | inhibition at 200 ppm [4] | inhibition at 200 ppm [9, 11] | inhibition at 200 ppm [7, 11] | pest or weed control at 200 ppm [8]

C/C(=N\OCCCc1cccc(-c2ccnc(Cc3ccccc3)n2)n1)c1cccc(C)n1 [P.10]
≥ 80%: inhibition at 200 ppm (Gaeumannomyces graminis; [11]) | pest or weed control at 200 ppm (Pyrenophora teres) | inhibition at 200 ppm [4] | inhibition at 200 ppm [9, 11] | inhibition at 200 ppm [7, 11]

C/C(=N\OCCCc1cccc(-c2cc(O)cc(C)n2)n1)c1cccc(C)n1 [P.14, 1-(6-methyl-pyridin-2-yl)-ethanone-O-[3-(4′-hydroxy-6′-methyl-[2,2′]bipyridinyl-6-yl)-propyl]-oxime]
≥ 80%: inhibition at 200 ppm (Gaeumannomyces graminis; [11]) | inhibition at 200 ppm [9, 11] | inhibition at 200 ppm [7, 11]

C/C(=N\OCCCc1cccc(-c2cc(OCc3ccccc3)cc(C)n2)n1)c1cccc(C)n1 [P.15]
≥ 80%: pest or weed control at 200 ppm [1] | inhibition at 200 ppm (Gaeumannomyces graminis; [11]) | pest or weed control at 200 ppm [2] | pest or weed control at 200 ppm (Pyrenophora teres) | inhibition at 200 ppm [3] | inhibition at 200 ppm [4] | inhibition at 200 ppm [9, 11] | inhibition at 200 ppm [5, 10] | inhibition at 200 ppm [6] | inhibition at 200 ppm [7, 11] | pest or weed control at 200 ppm [8]

CC(=O)c1ccc(-c2cccc(CCCO/N=C(\C)c3cccc(C)n3)n2)nc1C [P.20]
≥ 80%: inhibition at 200 ppm (Gaeumannomyces graminis; [11]) | pest or weed control at 200 ppm (Pyrenophora teres) | inhibition at 200 ppm [7, 11] | pest or weed control at 200 ppm [8]

CCON=C(C)c1ccc(-c2cccc(CCCO/N=C(\C)c3cccc(C)n3)n2)nc1C [P.23]
≥ 80%: pest or weed control at 200 ppm [1] | inhibition at 200 ppm (Gaeumannomyces graminis; [11]) | pest or weed control at 200 ppm [2] | pest or weed control at 200 ppm (Pyrenophora teres) | inhibition at 200 ppm [4] | inhibition at 200 ppm [9, 11] | inhibition at 200 ppm [5, 10] | inhibition at 200 ppm [7, 11] | pest or weed control at 200 ppm [8]

C#CCOc1cc(C)nc(-c2cccc(CCCO/N=C(\C)c3cccc(C)n3)n2)c1 [P.24]
≥ 80%: pest or weed control at 200 ppm [1] | inhibition at 200 ppm (Gaeumannomyces graminis; [11]) | pest or weed control at 200 ppm [2] | pest or weed control at 200 ppm (Pyrenophora teres) | inhibition at 200 ppm [3] | inhibition at 200 ppm [4] | inhibition at 200 ppm [9, 11] | inhibition at 200 ppm [6] | inhibition at 200 ppm [7, 11] | pest or weed control at 200 ppm [8]

CCCOc1cc(C)nc(-c2cccc(CCCO/N=C(\C)c3cccc(C)n3)n2)c1 [P.26]
≥ 80%: pest or weed control at 200 ppm [1] | inhibition at 200 ppm (Gaeumannomyces graminis; [11]) | pest or weed control at 200 ppm [2] | pest or weed control at 200 ppm (Pyrenophora teres) | inhibition at 200 ppm [3] | inhibition at 200 ppm [4] | inhibition at 200 ppm [9, 11] | inhibition at 200 ppm [5, 10] | inhibition at 200 ppm [6] | inhibition at 200 ppm [7, 11] | pest or weed control at 200 ppm [8]

CCc1cc(OC)c(C)c(-c2cccc(CCCO/N=C(\C)c3cccc(C)n3)n2)n1 [P.33]
≥ 80%: pest or weed control at 200 ppm [1] | pest or weed control at 200 ppm [2] | pest or weed control at 200 ppm (Pyrenophora teres) | inhibition at 200 ppm [4] | inhibition at 200 ppm [9, 11] | inhibition at 200 ppm [6] | inhibition at 200 ppm [7, 11] | pest or weed control at 200 ppm [8]

CCOc1cc(CC)nc(-c2cccc(CCCO/N=C(\C)c3cccc(C)n3)n2)c1C [P.34]
≥ 80%: pest or weed control at 200 ppm [1] | pest or weed control at 200 ppm [2] | pest or weed control at 200 ppm (Pyrenophora teres) | inhibition at 200 ppm [4] | inhibition at 200 ppm [9, 11] | inhibition at 200 ppm [6] | inhibition at 200 ppm [7, 11] | pest or weed control at 200 ppm [8]

CCCOc1cc(CC)nc(-c2cccc(CCCO/N=C(\C)c3cccc(C)n3)n2)c1C [P.35]
≥ 80%: pest or weed control at 200 ppm [1] | pest or weed control at 200 ppm [2] | pest or weed control at 200 ppm (Pyrenophora teres) | inhibition at 200 ppm [4] | inhibition at 200 ppm [9, 11] | inhibition at 200 ppm [5, 10] | inhibition at 200 ppm [6] | inhibition at 200 ppm [7, 11] | pest or weed control at 200 ppm [8]

CCc1cc(OC(C)C)c(C)c(-c2cccc(CCCO/N=C(\C)c3cccc(C)n3)n2)n1 [P.36]
≥ 80%: pest or weed control at 200 ppm [1] | pest or weed control at 200 ppm [2] | pest or weed control at 200 ppm (Pyrenophora teres) | inhibition at 200 ppm [4] | inhibition at 200 ppm [9, 11] | inhibition at 200 ppm [5, 10] | inhibition at 200 ppm [6] | inhibition at 200 ppm [7, 11] | pest or weed control at 200 ppm [8]

C=CCOc1cc(CC)nc(-c2cccc(CCCO/N=C(\C)c3cccc(C)n3)n2)c1C [P.37]
≥ 80%: pest or weed control at 200 ppm [1] | pest or weed control at 200 ppm [2] | pest or weed control at 200 ppm (Pyrenophora teres) | inhibition at 200 ppm [4] | inhibition at 200 ppm [9, 11] | inhibition at 200 ppm [5, 10] | inhibition at 200 ppm [6] | inhibition at 200 ppm [7, 11] | pest or weed control at 200 ppm [8]

C#CCOc1cc(CC)nc(-c2cccc(CCCO/N=C(\C)c3cccc(C)n3)n2)c1C [P.38]
≥ 80%: pest or weed control at 200 ppm [1] | pest or weed control at 200 ppm [2] | pest or weed control at 200 ppm (Pyrenophora teres) | inhibition at 200 ppm [4] | inhibition at 200 ppm [9, 11] | inhibition at 200 ppm [5, 10] | inhibition at 200 ppm [6] | inhibition at 200 ppm [7, 11] | pest or weed control at 200 ppm [8]

CCc1cc(Cl)c(C)c(-c2cccc(CCCO/N=C(\C)c3cccc(C)n3)n2)n1 [P.39]
≥ 80%: inhibition at 200 ppm [3] | inhibition at 200 ppm [4] | inhibition at 200 ppm [9, 11] | inhibition at 200 ppm [5, 10] | inhibition at 200 ppm [6] | inhibition at 200 ppm [7, 11] | pest or weed control at 200 ppm [8]

CCc1cc(Br)c(C)c(-c2cccc(CCCO/N=C(\C)c3cccc(C)n3)n2)n1 [P.41]
≥ 80%: inhibition at 200 ppm [3] | inhibition at 200 ppm [4] | inhibition at 200 ppm [9, 11] | inhibition at 200 ppm [5, 10] | inhibition at 200 ppm [7, 11] | pest or weed control at 200 ppm [8]
